Results published in article PMC8041284, “Tunable Methacrylamides for Covalent Ligand Directed Release Chemistry” (Journal of the American Chemical Society, 2021).
Where two headings read alike, the source gives them in different places.

Target: BTK (Homo sapiens, UniProt Q06187)
Assay: biochemical
[1] = read-out: BTK inhibition (%), 0.75 uM BTK, […] probe 3l, 15 min preincubation

Sequence of BTK (Q06187 402-655 limits assumed): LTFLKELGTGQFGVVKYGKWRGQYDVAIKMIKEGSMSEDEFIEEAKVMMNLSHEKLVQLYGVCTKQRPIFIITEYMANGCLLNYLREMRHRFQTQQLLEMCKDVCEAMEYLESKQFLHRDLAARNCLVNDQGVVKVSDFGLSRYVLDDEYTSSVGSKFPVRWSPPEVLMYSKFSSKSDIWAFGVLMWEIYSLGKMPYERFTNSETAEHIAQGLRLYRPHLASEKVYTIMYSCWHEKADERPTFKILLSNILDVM

| SMILES | inhibition at 10 µM [1] [%] | inhibition at 10 µM (read-out: BTK inhibition (%)) [%] |
| --- | --- | --- |
| Cc1ccc(-c2n[nH]c3c2C(c2cccc(O)c2)N(c2ccc(C(=O)O)cc2)C3=O)cc1 (centres unmarked) [PCM-0216247] | 41.7 | – |
| Nc1[nH]c(=O)ncc1F [PCM-0086523] | -6.2 | – |
| CCn1cc(C(=O)O)c(=O)c2c(N)c(F)c(NC3CCCCC3)cc21 [PCM-0215625] | 5.4 | – |
| O=C(Nc1cccc(Cl)c1)c1ccccn1 [PCM-0095506] | 5.4 | – |
| OC1OC[C@@H](O)[C@@H](O)[C@H]1O (some centres unmarked) [PCM-0216193] | 4.6 | – |
| CN(C)Cc1cccc(N=C(c2ccccc2)c2c(O)[nH]c3cc(C(=O)N(C)C)ccc23)c1 [PCM-0095091] | 1.4 | – |
| O=c1ccc2ccc(O)cc2[nH]1 [PCM-0216227] | 7.8 | – |
| CCC(C)C(=O)O[C@@H]1[C@@H](OC(C)=O)[C@]2(C)[C@H](C(C)=O)CC[C@@]23O[C@]32CC[C@H]3C[C@@H](O[C@H]4C[C@@H](OC)[C@H](O[C@@H]5O[C@H](C)[C@@H](O)[C@@H](OC)[C@H]5O)[C@@H](C)O4)CC[C@]3(C)[C@@H]12 (some centres unmarked) [PCM-0216595] | -11.6 | – |
| CC(C)=CCCC(C)CCO (centres unmarked) [PCM-0216208] | -7.7 | – |
| Cc1ccc(NC(=O)C2(c3ccc4c(c3)OC(F)(F)O4)CC2)nc1-c1cccc(C(=O)O)c1 [PCM-0095124] | -9.3 | – |
| NC(=O)CCCSc1nc(N)nc(-c2c(Cl)cc3c4c(cccc24)COC3)n1 [PCM-0095776] | -2.3 | – |
| COCCOC(=O)C1=C(C)NC(C)=C(C(=O)OC(C)C)C1c1cccc([N+](=O)[O-])c1 (centres unmarked) [PCM-0064753] | 5.4 | – |
| Oc1ncnc2[nH]ncc12 [PCM-0064482] | -5.5 | – |
| CC(C)C[C@H](NC(=O)[C@H](CCc1ccccc1)NC(=O)CN1CCOCC1)C(=O)N[C@@H](Cc1ccccc1)C(=O)N[C@@H](CC(C)C)C(=O)[C@@]1(C)CO1 [PCM-0095475] | -17.1 | – |
| CCCCCCCCCCC[C@@H](C[C@@H]1OC(=O)[C@H]1CCCCCC)OC(=O)[C@H](CC(C)C)NC=O [PCM-0095181] | -13.2 | – |
| COc1cc2c(cc1O)C[C@H]1c3cc(O)c(OC)cc3CC[N@@+]1(C)C2 [PCM-0216444] | -1.5 | – |
| Cc1cc(NS(=O)(=O)c2ccc(N)cc2)nc(C)n1 [PCM-0216097] | 11 | – |
| COC(=O)c1ccco1 [PCM-0216224] | -23.9 | – |
| O=C(O)c1c[nH]c2ccccc12 [PCM-0215132] | 6.2 | – |
| CC(C)C(Br)C(=O)NC(N)=O (centres unmarked) [PCM-0216023] | – | 12.4 |
| C[C@]1(O)C[C@@H](O)[C@@H]2C=CO[C@@H](O[C@@H]3O[C@H](CO)[C@@H](O)[C@H](O)[C@H]3O)[C@@H]21 [PCM-0216407] | -5.4 | – |
| C[C@@H](NCCCc1cccc(C(F)(F)F)c1)c1cccc2ccccc12 [PCM-0095032] | 24.1 | – |
| Cc1ccc(N(CC2=NCCN2)c2cccc(O)c2)cc1 [PCM-0065435] | -8.6 | – |
| Nc1ncnc2c1ccn2[C@@H]1O[C@H]([C@H](O)c2ccccc2)[C@@H](O)[C@H]1O [PCM-0215960] | 13.1 | – |
| Cc1ccc(S(=O)(=O)Nc2nc3ccccc3nc2Nc2ccc3nsnc3c2)cc1 [PCM-0094918] | -1.7 | – |

| SMILES | inhibition at 10 µM [1] [%] | inhibition at 10 µM (read-out: BTK inhibition (%)) [%] |
| --- | --- | --- |
| CC(C)C12CCC(C)(CC1)O2 [PCM-0216156] | 23.9 | – |
| COc1cc(N2CCN(C)CC2)ccc1Nc1ncc2c(n1)N(C)c1ccccc1C(=O)N2 [PCM-0213372] | 11 | – |
| COCCOC(=O)C1=C(C)NC(C)=C(C(=O)OC/C=C/c2ccccc2)C1c1cccc([N+](=O)[O-])c1 (centres unmarked) [PCM-0065102] | 59.9 | – |
| O=C(O)c1ccc(Nc2ncc3c(n2)-c2ccc(Cl)cc2C(c2c(F)cccc2F)=NC3)cc1 [PCM-0095077] | 79.3 | – |
| Cn1cc(-c2ccc3c(c2)CCN3C(=O)Cc2cccc(C(F)(F)F)c2)c2c(N)ncnc21 [PCM-0095812] | 40 | – |
| CCNC(=O)c1[nH]nc(-c2cc(Cl)c(O)cc2O)c1-c1ccc(OC)cc1 [PCM-0215298] | 21.6 | – |
| O=C1c2c(O)cc(O)cc2O[C@H](c2ccc(O)c(O)c2)[C@H]1O [PCM-0087882] | 11 | – |
| COc1ccc2c3c1O[C@H]1C[C@@H](O)C=C[C@@]31CCN(C)C2 [PCM-0086015] | -17.1 | – |
| CCOCC(O)COc1ccc(NC(=O)CC[S+](C)C)cc1 (centres unmarked) [PCM-0095295] | 0 | – |
| CCCC[C@@H](C=O)NC(=O)[C@H](CC(C)C)NC(=O)OCc1ccccc1 [PCM-0215437] | -4.6 | – |
| CCOC(=O)COc1ccc(/C=C2\SC(=S)NC2=O)cc1OC [PCM-0215662] | 84.2 | – |
| CC(=O)O[C@@H](C[C@@H](C)C1=C2C[C@H](O)[C@H]3[C@@]4(C)CCC(=O)C(C)(C)[C@@H]4CC[C@]3(C)[C@@]2(C)CC1)[C@H]1OC1(C)C [PCM-0216390] | -4.6 | – |
| CC/C(=C(/CC)c1ccc(O)cc1)c1ccc(O)cc1 [PCM-0086456] | -26.5 | – |
| CC1(C)CC[C@]2(C(=O)O[C@@H]3O[C@H](CO[C@@H]4O[C@H](CO)[C@@H](O)[C@H](O)[C@H]4O)[C@@H](O)[C@H](O)[C@H]3O)CC[C@]3(C)C(=CC[C@@H]4[C@@]5(C)CC[C@H](O[C@@H]6OC[C@H](O)[C@H](O)[C@H]6O)[C@@](C)(CO)[C@@H]5CC[C@]43C)[C@@H]2C1 [PCM-0216172] | 13.9 | – |
| C=C1[C@H](O)C[C@H]2[C@@H](/C=C(\C)C(=O)[C@@]3(O)C[C@H](C)[C@H](O)[C@@H]3[C@H]1O)C2(C)C [PCM-0216654] | -8.6 | – |
| Nc1nc(NC2CC2)c2ncn([C@H]3C=C[C@@H](CO)C3)c2n1 [PCM-0086436] | 9.4 | – |
| CCCc1cc(C)[nH]c(=O)c1CNC(=O)c1cc(-c2ccc(N3CCN(C(C)C)CC3)nc2)cc2c1cnn2C(C)C [PCM-0095761] | -29.3 | – |
| C[C@H]1O[C@@H](O[C@H]2CC[C@@]3(C)[C@@H](CC[C@]4(C)[C@@H]3C=CC3=C5CC(C)(C)CC[C@]5(CO)[C@@H](O)C[C@]34C)[C@]2(C)CO)[C@H](O[C@@H]2O[C@H](CO)[C@@H](O)[C@H](O)[C@H]2O)[C@@H](O[C@@H]2O[C@H](CO)[C@@H](O)[C@H](O)[C@H]2O)[C@H]1O [PCM-0216370] | 25.5 | – |
| COc1cc(N)c(Cl)cc1C(=O)N[C@H]1CCN(CCCOc2ccc(F)cc2)C[C@H]1OC [PCM-0086006] | 13.2 | – |
| O=CC[C@@H](O)[C@H](O)[C@H](O)CO [PCM-0214849] | 5.4 | – |
| CCOC(=O)[C@H](CCc1ccccc1)N[C@H]1CCc2ccccc2N(CC(=O)O)C1=O [PCM-0086130] | -24.9 | – |
| NC(=O)c1cn(Cc2c(F)cccc2F)nn1 [PCM-0065619] | -17.9 | – |
| COc1nc(C)nc(Cl)c1NC1=NCCN1 [PCM-0065456] | 0.8 | – |
| O=C(O)P(=O)(O)O [PCM-0090233] | 1.6 | – |
| COc1cc(C(=O)O)cc(OC)c1OC [PCM-0215032] | -21 | – |

| SMILES | inhibition at 10 µM [1] [%] | inhibition at 10 µM (read-out: BTK inhibition (%)) [%] |
| --- | --- | --- |
| O=C(O)COCCN1CCN(C(c2ccccc2)c2ccc(Cl)cc2)CC1 (centres unmarked) [PCM-0065180] | 15.2 | – |
| N=C(N)c1ccc(OCCCCCOc2ccc(C(=N)N)cc2)cc1 [PCM-0064878] | -4.7 | – |
| CC(CCc1ccccc1)NCC(=O)c1ccc(O)c(C(N)=O)c1 (centres unmarked) [PCM-0216052] | -18.5 | – |
| C#Cc1cccc(Nc2ncnc3cc4c(cc23)OCCOCCOCCO4)c1 [PCM-0095422] | -16.6 | – |
| COc1ccc2c(c1)c(C1=C(c3c[nH]c4ccccc34)C(=O)NC1=O)cn2CCCN(C)C [PCM-0095393] | 24.8 | – |
| CCOC(=O)N[C@@H]1CC[C@@H]2[C@@H](C1)C[C@H]1C(=O)O[C@H](C)[C@H]1[C@H]2/C=C/c1ccc(-c2cccc(F)c2)cn1 [PCM-0215561] | 26.3 | – |
| O=C(CNc1ccc2ccccc2c1)N/N=C/c1cc(Br)c(O)c(Br)c1O [PCM-0215592] | 47.9 | – |
| CC1=C(C/C=C(\C)CCC[C@H](C)CCC[C@H](C)CCCC(C)C)C(=O)c2ccccc2C1=O [PCM-0216261] | 7.8 | – |
| CC1(C)CC[C@]2(C)CC[C@]3(C)C(=CC[C@@H]4[C@@]5(C)CC[C@@H](O)[C@](C)(C(=O)O)[C@@H]5CC[C@]43C)[C@@H]2C1 [PCM-0216570] | -6.9 | – |
| CCCS(=O)(=O)Nc1ccc(F)c(C(=O)c2c[nH]c3ncc(Cl)cc23)c1F [PCM-0094979] | 23.4 | – |
| CN(CCO)CC(O)Cn1cnc2c1c(=O)n(C)c(=O)n2C (centres unmarked) [PCM-0215123] | 9.3 | – |
| O=C1CC(=O)c2c(Cl)c(Cl)c(Cl)c(Cl)c21 [PCM-0215201] | 79.5 | – |
| NC(=O)[C@H](CCCN=C(N)CCl)NC(=O)c1ccccc1 [PCM-0215816] | -5.5 | – |
| CN1C(=O)COc2c(C(=O)NC3CN4CCC3CC4)cc(Cl)cc21 (centres unmarked) [PCM-0095275] | -7.7 | – |
| O=C(O)C(O)C(O)C(=O)O (centres unmarked) [PCM-0215711] | -0.9 | – |
| O=c1c(-c2ccc(O)cc2)coc2cc(O[C@@H]3O[C@H](CO)[C@@H](O)[C@H](O)[C@H]3O)ccc12 [PCM-0214779] | 10.9 | – |
| CCc1c(O)cc(O)c(C(=O)c2ccc(OCCN3CCOCC3)c(OC)c2)c1CC(=O)N(CCOC)CCOC [PCM-0095381] | 2.3 | – |
| COc1cc2ncnc(Nc3cccc(Cl)c3F)c2cc1OC(=O)N1CCN(C)C[C@H]1C [PCM-0215575] | -19.3 | – |
| C[C@@H](O)[C@H]1C(=O)N2C(C(=O)[O-])=C(SC3Cn4cnc[n+]4C3)[C@H](C)[C@H]12 (some centres unmarked) [PCM-0215353] | -18.7 | – |
| COc1nc(N)nc2c1ncn2[C@@H]1O[C@H](CO)[C@@H](O)[C@@H]1O [PCM-0094930] | -3.1 | – |
| CNC(=O)c1cccc(-c2ccc3c(N4CCOC[C@@H]4C)nc(N4CCOC[C@@H]4C)nc3n2)c1 [PCM-0095362] | -2.8 | – |
| CC(C)=CCC[C@](C)(O)[C@H]1CC[C@]2(C)[C@@H]1[C@H](O)C[C@@H]1[C@@]3(C)CC[C@H](O)C(C)(C)[C@@H]3[C@@H](O[C@@H]3O[C@H](CO)[C@@H](O)[C@H](O)[C@H]3O[C@@H]3O[C@@H](C)[C@H](O)[C@@H](O)[C@H]3O)C[C@]12C [PCM-0216405] | -5.4 | – |
| CCCCNc1ccc(C(=O)OCCN(C)C)cc1 [PCM-0064772] | 10.9 | – |
| COc1ccnc(C[S+]([O-])c2nc3ccc(-n4cccc4)cc3[nH]2)c1C (centres unmarked) [PCM-0214937] | 25.7 | – |
